The subject of one data set is LIM1215 xenografts. In words: In vivo radioactive organ biodistribution in LIM1215 xenograft mice. Set-up: species or system CD1 nu/nu mice. On the procedure:
Fig. 3 In vivo radioactive organ biodistribution data presented in % Injected Dose per gram (%ID g^−1) for MeO-[PEG6-[^125I]-IPQA] 8 (black columns) and F1LA1 K16Cys-SMal-[PEG3-[^125I]-IPQA] 9 lipopolyplex (grey columns) 3, 6 and 24 h after injection. The tumor %ID g^−1 at 3, 6 and 24 h for both tracers is represented on a separate graph.
All animal studies were approved by the University College London Biological Services Ethical Review Committee and licensed under the UK Home Office regulations and the Guidance for the Operation of Animals (Scientific Procedures) Act 1986 (Home Office, London, United Kingdom). 12 female 6–8 weeks old CD1 nu/nu mice (Charles River Laboratories, UK) were injected subcutaneously in the right flank with 2 × 10^6 LIM1215 cells in 100 μL PBS. Once palpable tumors were measure in three orthogonal directions using the following equation: length × height × width × π/6. Once tumors had reached approximately 70–100 mm^3 mice were randomly divided into 2 groups; group 1 received an intravenous injection of 0.5Mbq MeO-[PEG6-[^125I]-IPQA] 8 (n = 6), group 2 received an intravenous injection of 0.5MBq F1LA1 K16Cys-SMal-[PEG3-[^125I]-IPQA]-lipopolyplex (n = 6). Mice were then culled at 3, 6 and 24 hours (n = 2 per time point) and all organs were taken, weighed and ^125I uptake quantified using a gamma counter (Wizard, PerkinElmer) to obtain % Injected dose per gram (%ID g^−1).

The target of data set [1] is T1, EGFR (Homo sapiens, UniProt P00533).
T1 construct: endogenous in cells; host or cells: LIM1215 colon cancer cells
The data set is described as follows: FRET-FLIM analysis of EGF-induced EGFR activity with Picchu-X biosensor in cells. In kind it is cell-based. Also on record: inhibition of EGF-induced EGFR activity (FRET-FLIM), difference between the groups: dose or concentration left out as unconfirmed. The source says:
We then prepared variant lipopolyplex formulations, based on CLA1 and including the EGFR inhibitor K16Cys-S-S-[PEG6-IPQA] 1 (Table 1). […] For efficient perfusion through the leaky endothelial cells of the tumor, lipopolyplexes must be <150 nm in diameter. […] We also carried out in vitro studies to check that the disulfide linker between K16Cys and PEG-IPQA was labile under pseudo-intracellular conditions (GSH/GSSG, HEPES, pH 7.2).[66] […] Next, we assessed the effectiveness of K16Cys-S-S-[PEG6-IPQA] 1 as an inhibitor of EGFR activity as a free therapeutic or within lipopolyplexes by utilizing FRET-FLIM and validating our results by western blot (WB) techniques. […]
A10 μM solution of the non-radiolabelled F1LA1 K16Cys-S-S-[PEG6-IPQA] lipopolyplex was applied to cells at 60% confluence in 96-well-plates. […] Time-domain fluorescence lifetime images were acquired via time correlated single photon counting (TCSPC) at a resolution of 256 by 256 pixels, with 256 time bins and 100 frames accumulated over 300 seconds, via excitation and emission filters suitable for the detection of GFP fluorescence (Excitation filter: Semrock FF01-470/22 nm; Beam Splitter: Edmund 48NT-392 30R/70 T; Emission filter: Semrock FF01-510/20 nm). […]

Data set [2] concerns EGFR. The data set is described as follows: EGFR activation by EGF in SW48 cells, western blot. The format is cell-based. The following applies: serum-free 24 h, 1 h pre-treatment, EGF 100 ng/mL 5 min, western blot (Fig. S1). On the procedure:
To test the ability of lipopolyplexes to deliver pDNA and inhibitor we used LIM1215 colon cancer cells. […] As a control, to check the response of the colorectal cancer cell lines to this class of TKI, we prepared an analogue of 1, with the disulfide-linked peptide replaced with an –OMe group. TKI analogue MeO-[PEG6-IPQA]
Optimization of EGFR inhibitor delivery to target cells
Figure S1. Effect of MeO-[PEG6-IPQA] (8) on EGFR activation by EGF in SW48 cells.
Cells were seeded in 6-well plate, 48 h later media was changed for media without serum. 24 h later cells were pre-treated with MeO-[PEG6-IPQA] (8) at indicated concentrations for 1 h followed by treatment with EGF (100 ng/mL) for 5 min. Cells were lysed and subjected to western blot analysis for activation/phosphorylation of EGFR and downstream signalling […]
(1 picture or pasted object on this page, not shown here)
(A western blot detects proteins with antibodies after separation by electrophoresis.)

Data set [3] deals with T1, EGFR. In words: Western blot of EGFR phosphorylation, time course of inhibitory effect. The format is cell-based. The following applies: for duration of EGFR inhibition: western blot (Fig. 2d). From the text:
(§1) We then prepared variant lipopolyplex formulations, based on CLA1 and including the EGFR inhibitor K16Cys-S-S-[PEG6-IPQA] 1 (Table 1). […] For efficient perfusion through the leaky endothelial cells of the tumor, lipopolyplexes must be <150 nm in diameter. […] We also carried out in vitro studies to check that the disulfide linker between K16Cys and PEG-IPQA was labile under pseudo-intracellular conditions (GSH/GSSG, HEPES, pH 7.2).[66] […] Next, we assessed the effectiveness of K16Cys-S-S-[PEG6-IPQA] 1 as an inhibitor of EGFR activity as a free therapeutic or within lipopolyplexes by utilizing FRET-FLIM and validating our results by western blot (WB) techniques. Activation of EGFR in cells treated with EGF (natural ligand for EGFR) was evident by decreasing lifetime of green fluorescent protein (GFP) in Picchu-X biosensor (Fig. 2c) and by appearance of phosphorylated EGFR band in WB image (Fig. 2d). In both cases pre-treatment with MeO-[PEG6-IPQA]
Fig. 2 Effect of different lipopolyplex formulations and drug loading on the expression of EGFR in targeted cells and inhibition of its activity upon stimulation with EGF. LIM1215 cells transfected with different lipopolyplexes without inhibitor (CLA1–4, NAE1–4, NGE1–4) (a) or with increasing amount of inhibitor per particle (F1LA1–3, F2LA1–3) (b) 24 h after seeding.
LIM1215, DiFi, SW48 and DLD1 colon cancer cell lines (independently validated by STR DNA fingerprinting at The Institute of Cancer Research (London, UK), were maintained in RPMI-1640 (Life Technologies Ltd). Antibodies: anti-EGFR (clone D38B1) anti-p-Y1173-EGFR (clone 53A5) were from Cell Signaling Technology Ltd.

For data set [4] the following is noted: cited from earlier work. The source says:
This approach also allowed us to further investigate the basis for the enhanced circulation and better tumour selectivity afforded by nanoparticle delivery of small molecule therapeutics. […] This phenomenon will need further investigation of potential differences in trafficking of the drug within the cell post-uptake, both in terms of the subcellular compartments involved and kinetics of intracellu ...

The nature of data set [5]: Cleavage of the disulfide linker under pseudo-intracellular conditions. The format is physicochemical. The following applies: reducing pseudo-intracellular conditions, GSH/GSSG, HEPES, pH 7.2 (Fig. S7).
From the text: as §1

Consider three compounds from PMC8601123, “Drug delivery, biodistribution and anti-EGFR activity: theragnostic nanoparticles for simultaneous in vivo delivery of tyrosine kinase inhibitors and kinase activity biosensors” (Nanoscale, 2021).

For the compound `C=CC(=O)Nc1cc2c(Nc3cccc(I)c3)ncnc2cc1OCCOCCOCCOCCOCCOCCOC` [Compound 8, MeO-[PEG6-IPQA]], the organ uptake result in the data set with LIM1215 xenografts (i.v. 0.5 MBq, 3, 6 and 24 h, 125I gamma counting, %ID g-1 (Fig. 3)) is “high uptake in gallbladder and intestines at 3 and 6 h”. The clearance route entry in the data set on LIM1215 xenografts (i.v. 0.5 MBq, 125I gamma counting, n = 2 per time point) is “rapidly cleared via the hepatobiliary route”. The “time of highest tumor uptake” value with LIM1215 xenografts (i.v. 0.5 MBq, time points 3, 6 and 24 h, gradual reduction over 24 h) was found to be 3 h. The “lifetime of GFP in Picchu-X biosensor after EGF” value at EGFR [1] (pre-treatment for 1 h, then EGF (Fig. 2c)) was “remained at baseline levels”. In addition, in the data set on EGFR [2], the “inhibition of EGFR activation by EGF” value was “potent inhibitor of EGFR activation”. Besides, the “duration of EGFR inhibition” value on EGFR [3] (free agent) is listed as 24 h. Moreover, the “level of EGFR phosphorylation” value at EGFR [3] (pre-treatment for 1 h, EGF stimulation, western blot (Fig. 2d, line 8 vs. line 2)) was “significantly lower than in the sample without inhibitor”.
Regarding `C=CC(=O)Nc1cc2c(Nc3cccc(I)c3)ncnc2cc1OCCOCCOCCOCCOCCOCCF` [[^18F]F-PEG6-IPQA], the “selectivity for tumour cells” value in data set [4] is recorded as “little selectivity for tumour cells”. Further, the in vivo clearance entry in data set [4] (compared with Mo-IPQA) is on record as “quicker in vivo clearance”.
K16Cys-S-S-[PEG6-IPQA] [Compound 1]: the “inhibition of EGF-induced EGFR activity (FRET-FLIM), difference between the groups” value on EGFR [1] (free agent, P = 0.03 (Fig. 2c legend)) is reported as “statistically significant”. In addition, the “time to cleavage of disulfide linkage” value in data set [5] is not above 5 min. Besides, the “duration of EGFR inhibition” value at EGFR [3] (delivered within lipopolyplexes) is “up to 48 h”. For the same compound, the “EGFR activity, inhibitor within lipopolyplexes” value on EGFR [3] (delivered within lipopolyplexes, western blot (Fig. 2d, lines 3-7 vs. line 2)) was “equally low levels as the free drug”.
